What was measured:
Format in all cases: cell-based
[1] = test system: S. aureus; experiment: Preservative efficacy test (PET), log reduction of S. aureus; settings: 24 hours, PET Screen International
Procedure: (§1) The antimicrobial activity and stability of the formulations shown in Table 1A below, which contain either 0.1 or 0.2 (w/v %) of Compound 1 were evaluated. Table 1A also contains an emulsion formulation (Formulation C) consisting of Cyclosporin and Compound 1. Table 1B constitutes overall standard preservative efficacy test (PET Screen International) results along with the results of a visual assessment of physical stability of the emulsions. […] Histograms for Formulation B, showing the initial particle size measurements as well as 60 weeks, can be seen in FIGS. 1A & 1B. Similarly, histograms for Formulation C, containing 0.05% Cyclosporin, showing the initial particle size measurements as well as at 62 weeks, can be seen in FIGS. 2A & 2B. […] The microbiological evaluation was conducted by determining the extent to which the emulsions reduced an initial population of about 10^6 cfu/mL microorganisms over time. The abbreviation “cfu” means colony forming unit. […] Overall EPA requirement of preservation in all tested formulations was achieved. The microbiology results are provided in greater detail in Table 1C, where the results of the evaluation of five microorganisms are provided.

[2] = test system: P. aeruginosa; experiment: Preservative efficacy test (PET), log reduction of P. aeruginosa; settings: 24 hours, PET Screen International
Procedure: as §1

[3] = test system: E. coli; experiment: Preservative efficacy test (PET), log reduction of E. coli; settings: 24 hours, PET Screen International
Procedure: as §1

[4] = test system: C. albicans; experiment: Preservative efficacy test (PET), log reduction of C. albicans; settings: 7 days, PET Screen International
Procedure: as §1

How did the log reductions ([1]; 0.1% Compound 1 emulsion) turn out when “sodium coco-diimonium chloride phosphate [Compound 1]” was run?
Its log reductions is 5 log.

And the log reductions ([1]; 0.2% Compound 1 emulsion)?
The log reductions was 5 log.

What about the log reductions ([2]; 0.1% Compound 1 emulsion) of the same substance?
The log reductions was 5 log.

What about the log reductions ([2]; 0.2% Compound 1 emulsion) of the same substance?
Its log reductions is 5 log.

What about the log reductions ([3]; 0.1% Compound 1 emulsion) of the same substance?
The log reductions was 5 log.

What about the log reductions ([3]; 0.2% Compound 1 emulsion) of the same substance?
Its log reductions is 5 log.

What about the log reductions ([4]; 0.1% Compound 1 emulsion) of the same substance?
Its log reductions is “approximately 5 log”.

What about the log reductions ([4]; 0.2% Compound 1 emulsion) of the same substance?
The log reductions was “approximately 5 log”.

Reference: US20090298956A1, “SELF-PRESERVED EMULSIONS” (priority 2008, published 2009)
